Source: ChEMBL document CHEMBL1201862, “PubChem BioAssay data set” (2004)
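Briefly, cells in 96-well plates were exposed to five compound concentrations for 48 h, and endpoints were estimated by linear interpolation. GI50: concentration for 50% inhibition of growth.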 Active and inactive are the calls of the source. Rule as the data show it: active = GI50 up to about 1.1 µM and inactive = higher.

Key:
Test in all cases: inhibition of tumour cell growth, NCI panel, 48 h
CCRF-CEM = tested on: CCRF-CEM
COLO 205 = tested on: COLO 205
DMS-273 = tested on: DMS-273
EKVX = tested on: EKVX
HCT-15 = tested on: HCT-15
HOP-18 = tested on: HOP-18
HOP-92 = tested on: HOP-92
IGROV-1 = tested on: IGROV-1
LOX IMVI = tested on: LOX IMVI
NCI-H226 = tested on: NCI-H226
NCI-H23 = tested on: NCI-H23
NCI/ADR-RES = tested on: NCI/ADR-RES
RXF 393 = tested on: RXF 393
SF-539 = tested on: SF-539
SK-MEL-28 = tested on: SK-MEL-28
SK-MEL-2 = tested on: SK-MEL-2
SK-OV-3 = tested on: SK-OV-3
SNB-75 = tested on: SNB-75
SW-620 = tested on: SW-620
UACC-62 = tested on: UACC-62

Brc1ccc2[nH]c3c(C4=NCCC4)nccc3c2c1
GI50 (CCRF-CEM): 10.4 µM (inactive)
GI50 (COLO 205): 23.3 µM (inactive)
GI50 (DMS-273): 14.4 µM (inactive)
GI50 (EKVX): 13 µM (inactive)
GI50 (HCT-15): 17 µM
GI50 (HOP-18): 10.2 µM (inactive)
GI50 (HOP-92): > 26.9 µM (inactive)
GI50 (IGROV-1): 18.7 µM (inactive)
GI50 (LOX IMVI): 18 µM (inactive)
GI50 (NCI-H226): 10.2 µM (inactive)
GI50 (NCI-H23): 24.8 µM (inactive)
GI50 (NCI/ADR-RES): 40 µM (inactive)
GI50 (RXF 393): 16.3 µM (inactive)
GI50 (SF-539): 9.53 µM (inactive)
GI50 (SK-MEL-28): 16.4 µM (inactive)
GI50 (SK-MEL-2): 13.9 µM (inactive)
GI50 (SK-OV-3): 26.7 µM (inactive)
GI50 (SNB-75): 31.3 µM (inactive)
GI50 (SW-620): 21.3 µM (inactive)
GI50 (UACC-62): 9.73 µM (inactive)
